Experimental data reported in the supplement of paper PMC4862054.

These compounds were tested on CAL-85-1 (assay: normalised response (% of control), CellTiter-Glo; higher = more viable cells (100 = DMSO, 0 = benzethonium chloride kill control)). Conditions: incubation time: 72 h.
Method in brief: (§1)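 A 20 µl suspension of breast cancer cells was seeded into each well of 384-well plates containing compound at 5 concentrations in 10-fold steps over a compound-specific 10,000-fold range. After 72 h incubation, CellTox Green fluorescence (485/520 nm) was read first, and CellTiter-Glo luminescence was read after 10 min at room temperature. Each plate was normalised against 0.1 % DMSO (100) and a positive kill control (0), and each value is the normalised signal at one concentration.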

Compound	normalised response [%]
COc1ccc(C2=N[C@@H](c3ccc(Cl)cc3)[C@@H](c3ccc(Cl)cc3)N2C(=O)N2CCNC(=O)C2)c(OC(C)C)c1 [Nutlin-3] (1 nM)	102
Cn1c(=O)c(F)c(Nc2ccc(I)cc2F)c2c(=O)n(C[C@@H](O)CO)cnc21 [TAK-733] (0.1 nM)	96.6
COC(=O)C[C@](O)(CCCC(C)(C)O)C(=O)O[C@@H]1C(OC)=C[C@]23CCCN2CCc2cc4c(cc2[C@H]13)OCO4 [Omacetaxine] (1 nM)	101
CC(C)(C)c1cc(NC(=O)Nc2ccc(-c3cn4c(n3)sc3cc(OCCN5CCOCC5)ccc34)cc2)no1 [Quizartinib] (0.1 nM)	110
C[C@@H]1C=C2C(=O)O[C@@H]3CC[C@H](C1)[C@]23O [Galiellalactone] (5 nM)	98.1

The compounds below were run on MCF-10A in the same assay as above. Conditions: incubation time: 72 h.
Method in brief: as §1

Compound	normalised response [%]
CCS(=O)(=O)c1cccc(-c2cc(C(=O)NC3CCN(C)CC3)c(C)c3[nH]c4ncc(C)cc4c23)c1 [TAK-901] (0.1 nM)	109
C#Cc1cccc(Nc2ncnc3cc(OC)c(OCCCCCCC(=O)NO)cc23)c1 [CUDC-101] (1 nM)	90.8
CC(C)C[C@H](NC(=O)[C@H](Cc1ccccc1)NC(=O)c1cnccn1)B(O)O [Bortezomib] (0.1 nM)	113
COc1ccc(C2=N[C@@H](c3ccc(Cl)cc3)[C@@H](c3ccc(Cl)cc3)N2C(=O)N2CCNC(=O)C2)c(OC(C)C)c1 [Nutlin-3] (1 nM)	101
Cn1c(=O)c(F)c(Nc2ccc(I)cc2F)c2c(=O)n(C[C@@H](O)CO)cnc21 [TAK-733] (0.1 nM)	114
COC(=O)C[C@](O)(CCCC(C)(C)O)C(=O)O[C@@H]1C(OC)=C[C@]23CCCN2CCc2cc4c(cc2[C@H]13)OCO4 [Omacetaxine] (1 nM)	108
CC(C)(C)c1cc(NC(=O)Nc2ccc(-c3cn4c(n3)sc3cc(OCCN5CCOCC5)ccc34)cc2)no1 [Quizartinib] (0.1 nM)	101
C[C@@H]1C=C2C(=O)O[C@@H]3CC[C@H](C1)[C@]23O [Galiellalactone] (5 nM)	111

The compounds below were run on BT-474 in the same assay as above. Conditions: incubation time: 72 h.
Method in brief: as §1

Compound	normalised response [%]
CCS(=O)(=O)c1cccc(-c2cc(C(=O)NC3CCN(C)CC3)c(C)c3[nH]c4ncc(C)cc4c23)c1 [TAK-901] (0.1 nM)	101
C#Cc1cccc(Nc2ncnc3cc(OC)c(OCCCCCCC(=O)NO)cc23)c1 [CUDC-101] (1 nM)	96.5
CC(C)C[C@H](NC(=O)[C@H](Cc1ccccc1)NC(=O)c1cnccn1)B(O)O [Bortezomib] (0.1 nM)	98.6
COc1ccc(C2=N[C@@H](c3ccc(Cl)cc3)[C@@H](c3ccc(Cl)cc3)N2C(=O)N2CCNC(=O)C2)c(OC(C)C)c1 [Nutlin-3] (1 nM)	99.8
Cn1c(=O)c(F)c(Nc2ccc(I)cc2F)c2c(=O)n(C[C@@H](O)CO)cnc21 [TAK-733] (0.1 nM)	103
COC(=O)C[C@](O)(CCCC(C)(C)O)C(=O)O[C@@H]1C(OC)=C[C@]23CCCN2CCc2cc4c(cc2[C@H]13)OCO4 [Omacetaxine] (1 nM)	106
CC(C)(C)c1cc(NC(=O)Nc2ccc(-c3cn4c(n3)sc3cc(OCCN5CCOCC5)ccc34)cc2)no1 [Quizartinib] (0.1 nM)	108
C[C@@H]1C=C2C(=O)O[C@@H]3CC[C@H](C1)[C@]23O [Galiellalactone] (5 nM)	106

Each compound was assayed on HCC1599 in the same assay as above. Conditions: incubation time: 72 h.
Method in brief: as §1

Compound	normalised response [%]
CCS(=O)(=O)c1cccc(-c2cc(C(=O)NC3CCN(C)CC3)c(C)c3[nH]c4ncc(C)cc4c23)c1 [TAK-901] (0.1 nM)	108
C#Cc1cccc(Nc2ncnc3cc(OC)c(OCCCCCCC(=O)NO)cc23)c1 [CUDC-101] (1 nM)	108
CC(C)C[C@H](NC(=O)[C@H](Cc1ccccc1)NC(=O)c1cnccn1)B(O)O [Bortezomib] (0.1 nM)	95.9
COc1ccc(C2=N[C@@H](c3ccc(Cl)cc3)[C@@H](c3ccc(Cl)cc3)N2C(=O)N2CCNC(=O)C2)c(OC(C)C)c1 [Nutlin-3] (1 nM)	104
Cn1c(=O)c(F)c(Nc2ccc(I)cc2F)c2c(=O)n(C[C@@H](O)CO)cnc21 [TAK-733] (0.1 nM)	94.3
COC(=O)C[C@](O)(CCCC(C)(C)O)C(=O)O[C@@H]1C(OC)=C[C@]23CCCN2CCc2cc4c(cc2[C@H]13)OCO4 [Omacetaxine] (1 nM)	88.4
CC(C)(C)c1cc(NC(=O)Nc2ccc(-c3cn4c(n3)sc3cc(OCCN5CCOCC5)ccc34)cc2)no1 [Quizartinib] (0.1 nM)	112
C[C@@H]1C=C2C(=O)O[C@@H]3CC[C@H](C1)[C@]23O [Galiellalactone] (5 nM)	102

The compounds below were run on MDA-MB-231 in the same assay as above. Conditions: incubation time: 72 h.
Method in brief: as §1

Compound	normalised response [%]
CCS(=O)(=O)c1cccc(-c2cc(C(=O)NC3CCN(C)CC3)c(C)c3[nH]c4ncc(C)cc4c23)c1 [TAK-901] (0.1 nM)	101
C#Cc1cccc(Nc2ncnc3cc(OC)c(OCCCCCCC(=O)NO)cc23)c1 [CUDC-101] (1 nM)	109
CC(C)C[C@H](NC(=O)[C@H](Cc1ccccc1)NC(=O)c1cnccn1)B(O)O [Bortezomib] (0.1 nM)	101
COc1ccc(C2=N[C@@H](c3ccc(Cl)cc3)[C@@H](c3ccc(Cl)cc3)N2C(=O)N2CCNC(=O)C2)c(OC(C)C)c1 [Nutlin-3] (1 nM)	105
Cn1c(=O)c(F)c(Nc2ccc(I)cc2F)c2c(=O)n(C[C@@H](O)CO)cnc21 [TAK-733] (0.1 nM)	105
COC(=O)C[C@](O)(CCCC(C)(C)O)C(=O)O[C@@H]1C(OC)=C[C@]23CCCN2CCc2cc4c(cc2[C@H]13)OCO4 [Omacetaxine] (1 nM)	104
CC(C)(C)c1cc(NC(=O)Nc2ccc(-c3cn4c(n3)sc3cc(OCCN5CCOCC5)ccc34)cc2)no1 [Quizartinib] (0.1 nM)	106
C[C@@H]1C=C2C(=O)O[C@@H]3CC[C@H](C1)[C@]23O [Galiellalactone] (5 nM)	103
